From PubChem BioAssay AID1259411 (Chemical Carcinogenesis Research Information System (CCRIS), 2018)
Calls of active or inactive are those of the source. No rule for the calls is given here.

Tested on: rodent carcinogenicity bioassays, tumor incidence
Assay: CCRIS carcinogenicity studies
Outline: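 NCI-built, expert-reviewed records of carcinogenicity and related test outcomes (mutagenicity, tumor promotion/inhibition) compiled from published and report sources, historical span 1985-2011, not updated.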

C1CCOC1
carcinogen call (Species: MOUSE, Strain/Sex: B6C3F1/FEMALE, Route: INHALATION, Dose: 0, 200, 600, 1800 PPM 6HR/D 5 D/WK FOR 105 WK (STUDY DURATION: 105 WK), Dose: 0, 200, 600, 1800 PPM 6HR/D 5 D/WK FOR 105 WK (STUDY DURATION: 105 WK), Tumor Site: Type of Lesion: LIVER: ADENOMA OR CARCINOMA): active; positive
carcinogen call (Species: MOUSE, Strain/Sex: B6C3F1/FEMALE, Route: INHALATION, Dose: 0, 200, 600, 1800 PPM 6 HR/D 5 D/WK FOR 105 WK (STUDY DURATION: 105 WK), Dose: 0, 200, 600, 1800 PPM 6 HR/D 5 D/WK FOR 105 WK (STUDY DURATION: 105 WK), Tumor Site: Type of Lesion: LIVER: HEPATOCELLULAR ADENOMA, HEPATOCELLULAR CARCINOMA): active; positive
carcinogen call (Species: MOUSE, Strain/Sex: B6C3F1/MALE, Route: INHALATION, Dose: 0, 200, 600, 1800 PPM 6 HR/D 5 D/WK FOR 105 WK (STUDY DURATION: 105 WK), Dose: 0, 200, 600, 1800 PPM 6 HR/D 5 D/WK FOR 105 WK (STUDY DURATION: 105 WK)): inactive; negative
carcinogen call (Species: RAT, Strain/Sex: F344/FEMALE, Route: INHALATION, Dose: 0, 200, 600, 1800 PPM 6 HR/D 5 D/WK FOR 105 WK (STUDY DURATION: 105 WK), Dose: 0, 200, 600, 1800 PPM 6 HR/D 5 D/WK FOR 105 WK (STUDY DURATION: 105 WK)): inactive; negative
carcinogen call (Species: RAT, Strain/Sex: F344/MALE, Route: INHALATION, Dose: 0, 200, 600, 1800 PPM 6 HR/D 5 D/WK FOR 105 WK (STUDY DURATION: 105 WK), Dose: 0, 200, 600, 1800 PPM 6 HR/D 5 D/WK FOR 105 WK (STUDY DURATION: 105 WK), Tumor Site: Type of Lesion: KIDNEY: RENAL TUBULE ADENOMA OR CARCINOMA): active; positive

COc1ccccc1[N+](=O)[O-]
carcinogen call (Species: MOUSE, Strain/Sex: B6C3F1/MALE, Route: ORAL, Dose: 0, 666, 2000, 6000 PPM IN DIET FOR 103 WK (STUDY DURATION: 103 WK), Dose: 0, 666, 2000, 6000 PPM IN DIET FOR 103 WK (STUDY DURATION: 103 WK), Tumor Site: Type of Lesion: LIVER: HEPATOBLASTOMA, HEPATOCELLULAR ADENOMA): active; positive
carcinogen call (Species: RAT, Strain/Sex: F344/N/FEMALE, Route: ORAL, Dose: 0, 222, 666, 2000 PPM IN DIET FOR 103 WK (STUDY DURATION: 103 WK), Dose: 0, 222, 666, 2000 PPM IN DIET FOR 103 WK (STUDY DURATION: 103 WK)): inactive; negative
carcinogen call (Species: RAT, Strain/Sex: F344/N/FEMALE, Route: ORAL, Dose: 0, 6000, 18,000 PPM IN DIET FOR 27 WK (STUDY DURATION: 104 WK), Dose: 0, 6000, 18,000 PPM IN DIET FOR 27 WK (STUDY DURATION: 104 WK), Tumor Site: Type of Lesion: COLON: ADENOMATOUS POLYP, URINARY BLADDER: CARCINOMA, SARCOMA): active; positive
carcinogen call (Species: RAT, Strain/Sex: F344/N/MALE, Route: ORAL, Dose: 0, 222, 666, 2000 PPM IN DIET FOR 103 WK (STUDY DURATION: 103 WK), Dose: 0, 222, 666, 2000 PPM IN DIET FOR 103 WK (STUDY DURATION: 103 WK)): inactive; negative
carcinogen call (Species: RAT, Strain/Sex: F344/N/MALE, Route: ORAL, Dose: 0, 6000, 18,000 PPM IN DIET FOR 27 WK (STUDY DURATION: 104 WK), Dose: 0, 6000, 18,000 PPM IN DIET FOR 27 WK (STUDY DURATION: 104 WK), Tumor Site: Type of Lesion: COLON: ADENOMATOUS POLYP, KIDNEY: CARCINOMA, URINARY BLADDER: CARCINOMA, SARCOMA, Tumor Site: Type of Lesion: COLON: ADENOMATOUS POLYP, KIDNEY: CARCINOMA, URINARY BLADDER: CARCINOMA, SARCOMA): active; positive

Oc1c(Cl)cc(Cl)cc1Cl
carcinogen call (Species: MOUSE, Strain/Sex: B6C3F1/FEMALE, Route: ORAL, Dose: 0, 5214, 10428 PPM IN DIET, Dose: 0, 5214, 10428 PPM IN DIET, Tumor Site: Type of Lesion: LIVER: HEPATOCELLULAR CARCINOMA OR ADENOMA): active; positive
carcinogen call (Species: MOUSE, Strain/Sex: B6C3F1/MALE, Route: ORAL, Dose: 0, 5000, 10000 PPM IN DIET, Dose: 0, 5000, 10000 PPM IN DIET, Tumor Site: Type of Lesion: LIVER: HEPATOCELLULAR CARCINOMA OR ADENOMA): active; positive
carcinogen call (Species: RAT, Strain/Sex: F344/FEMALE, Route: ORAL, Dose: 0, 5000, 10000 PPM IN DIET, Dose: 0, 5000, 10000 PPM IN DIET): inactive; negative
carcinogen call (Species: RAT, Strain/Sex: F344/MALE, Route: ORAL, Dose: 0, 5000, 10000 PPM IN DIET, Dose: 0, 5000, 10000 PPM IN DIET, Tumor Site: Type of Lesion: HEMATOPOIETIC SYSTEM (LEUKEMIA): MONOCYTIC LEUKEMIA, LYMPHATIC SYSTEM: LYMPHOMA): active; positive

CCCN(COC(C)=O)N=O
carcinogen call (Species: RAT, Strain/Sex: F344/FEMALE, Route: SUBCUTANEOUS, Dose: 6.1 MG/KG 1/WK FOR 10 WK, Tumor Site: Type of Lesion: INJECTION SITE: MALIGNANT FIBROUS HISTIOCYTOMA, LUNG: ADENOMA, ADENOCARCINOMA OR SQUAMOUS CELL CARCINOMA, THYROID GLAND:, Tumor Site: Type of Lesion: INJECTION SITE: MALIGNANT FIBROUS HISTIOCYTOMA, LUNG: ADENOMA, ADENOCARCINOMA OR SQUAMOUS CELL CARCINOMA, THYROID GLAND:): active; positive
carcinogen call (Species: RAT, Strain/Sex: F344/MALE, Route: SUBCUTANEOUS, Dose: 6.1 MG/KG 1/WK FOR 10 WK, Tumor Site: Type of Lesion: INJECTION SITE: MALIGNANT FIBROUS HISTIOCYTOMA, LUNG: ADENOMA, ADENOCARCINOMA OR SQUAMOUS CELL CARCINOMA): active; positive

Cc1nc(N)cc2[nH]c3ccccc3c12
carcinogen call (Species: MOUSE, Strain/Sex: CDF1/FEMALE, Route: ORAL, Dose: 0, 200 PPM IN DIET FOR 621 D, Tumor Site: Type of Lesion: LIVER: HEPATOCELLULAR CARCINOMA): active; positive
carcinogen call (Species: MOUSE, Strain/Sex: DDY/FEMALE, Route: BLADDER IMPLANT, Dose: 0, 5% IN PARAFFIN PELLET (STUDY DURATION: 40 WK), Tumor Site: Type of Lesion: URINARY BLADDER: TRANSITIONAL CELL CARCINOMA): active; positive
carcinogen call (Species: RAT, Strain/Sex: F344/FEMALE, Route: ORAL, Dose: 0, 30, 100 PPM IN DIET FOR 112 WK (STUDY DURATION: 112 WK), Dose: 0, 30, 100 PPM IN DIET FOR 112 WK (STUDY DURATION: 112 WK), Tumor Site: Type of Lesion: MAMMARY GLAND: FIBROADENOMA OR FIBROMA, HEMATOPOIETIC SYSTEM: MALIGNANT LYMPHOMA, CLITORAL GLAND: ADENOMA, Tumor Site: Type of Lesion: MAMMARY GLAND: FIBROADENOMA OR FIBROMA, HEMATOPOIETIC SYSTEM: MALIGNANT LYMPHOMA, CLITORAL GLAND: ADENOMA): active; positive
carcinogen call (Species: RAT, Strain/Sex: F344/MALE, Route: ORAL, Dose: 0, 30, 100 PPM IN DIET FOR 112 WK (STUDY DURATION: 112 WK), Dose: 0, 30, 100 PPM IN DIET FOR 112 WK (STUDY DURATION: 112 WK), Tumor Site: Type of Lesion: LIVER: HEPATOCELLULAR ADENOMA, URINARY BLADDER: TRANSITIONAL CELL PAPILLOMA, MAMMARY GLAND: FIBROADENOMA OR FIBROMA, Tumor Site: Type of Lesion: LIVER: HEPATOCELLULAR ADENOMA, URINARY BLADDER: TRANSITIONAL CELL PAPILLOMA, MAMMARY GLAND: FIBROADENOMA OR FIBROMA): active; positive

CS(=O)CC(=O)c1ccccn1 (centres undefined)
carcinogen call (Species: MOUSE, Strain/Sex: B6C3F1/FEMALE, Route: ORAL, Dose: 0, 40, 240, 600 MG/KG IN DIET FOR 80 WK (STUDY DURATION: 80 WK), Dose: 0, 40, 240, 600 MG/KG IN DIET FOR 80 WK (STUDY DURATION: 80 WK), Tumor Site: Type of Lesion: LUNG: ALVEOLOGENIC ADENOCARCINOMA): active; positive
carcinogen call (Species: MOUSE, Strain/Sex: CF1/MALE, Route: ORAL, Dose: 0, 40, 240, 600 MG/KG IN DIET FOR 80 WK (STUDY DURATION: 80 WK), Dose: 0, 40, 240, 600 MG/KG IN DIET FOR 80 WK (STUDY DURATION: 80 WK)): inactive; negative
carcinogen call (Species: RAT, Strain/Sex: WISTAR/FEMALE, Route: ORAL, Dose: 0, 40, 240, 600 MG/KG IN DIET FOR 104 WK (STUDY DURATION: 104 WK), Dose: 0, 40, 240, 600 MG/KG IN DIET FOR 104 WK (STUDY DURATION: 104 WK)): inactive; negative
carcinogen call (Species: RAT, Strain/Sex: WISTAR/MALE, Route: ORAL, Dose: 0, 40, 240, 600 MG/KG IN DIET FOR 104 WK (STUDY DURATION: 104 WK), Dose: 0, 40, 240, 600 MG/KG IN DIET FOR 104 WK (STUDY DURATION: 104 WK), Tumor Site: Type of Lesion: LIVER: HEPATOCELLULAR ADENOMA): active; positive
